{"source": "patent US20250171430A1", "about": "“PYRAZOLYL COMPOUNDS AS KV7 CHANNEL ACTIVATORS” (Biohaven Therapeutics Ltd., priority 2022, published 2025)"}
{"target": "T1, Kv7.2/7.3 (Homo sapiens, UniProt O43525+O43526)", "T1 construct": "Kv7.2 tetracycline-induced, Kv7.3 constitutive", "assay": "Kv7.2/7.3 Activation Assay (Thallium Flux Assay)", "type": "cell-based", "settings": "hKV7.2/7.3 cell line; test compound at single concentration of 10 μM; fluorescence at 90 sec normalized to positive control (retigabine, 30 μM)", "procedure,_shortened": "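Single-point activity at 10 μM (0.1% DMSO, HEPES-buffered saline, pH 7.4) was scored from fluorescence at 90 s relative to 30 μM retigabine. Categories were none <0.15, moderate 0.15-0.7 and high >0.7. Thallium influx after stimulus addition was followed with FluxOR II Green dye in hKv7.2/7.3 cells, Kv7.2 expressed under overnight tetracycline (10 ng/mL) induction.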"}
{"smiles": "Cn1nc(NC(=O)C2CC(F)(F)C2)c(C2CCC2)c1-c1ccc(Cl)s1", "note": "[Compound 194, N-(5-(5-chlorothiophen-2-yl)-4-cyclobutyl-1-methyl-1H-pyrazol-3-yl)-3,3-difluorocyclobutane-1-carboxamide]", "Kv7.2/7.3 Activity": "++ (“++” High Activity ≥ 0.7)"}
{"smiles": "Cn1nc(NC(=O)C2CC(F)(F)C2)c(C2CCC2)c1-c1cnc(C(F)(F)F)s1", "note": "[Compound 195, N-(4-cyclobutyl-1-methyl-5-(2-(trifluoromethyl)thiazol-5-yl)-1H-pyrazol-3-yl)-3,3-difluorocyclobutane-1-carboxamide]", "Kv7.2/7.3 Activity": "+ (“+” Moderate Activity 0.15-0.7)"}
{"smiles": "Cn1nc(NC(=O)C(C2CC2)C2CC2)c(C2CCC2)c1-c1ccc(F)cc1", "note": "[Compound 196, N-(4-cyclobutyl-5-(4-fluorophenyl)-1-methyl-1H-pyrazol-3-yl)-2,2-dicyclopropylacetamide]", "Kv7.2/7.3 Activity": "+ (“+” Moderate Activity 0.15-0.7)"}
{"smiles": "Cn1nc(NC(=O)c2ccccc2)c(C2CCC2)c1-c1ccc(F)cc1", "note": "[Compound 197, N-(4-cyclobutyl-5-(4-fluorophenyl)-1-methyl-1H-pyrazol-3-yl)benzamide]", "Kv7.2/7.3 Activity": "++ (“++” High Activity ≥ 0.7)"}
{"smiles": "Cn1nc(NC(=O)c2ccccc2)c(C2CCC2)c1-c1ccc(OC(F)(F)F)cc1", "note": "[Compound 198, N-(4-cyclobutyl-1-methyl-5-(4-(trifluoromethoxy)phenyl)-1H-pyrazol-3-yl)benzamide]", "Kv7.2/7.3 Activity": "+ (“+” Moderate Activity 0.15-0.7)"}
{"smiles": "Cn1nc(NC(=O)C2(C)CC(F)(F)C2)c(C2CCC2)c1-c1ccc(F)cc1", "note": "[Compound 199, N-(4-cyclobutyl-5-(4-fluorophenyl)-1-methyl-1H-pyrazol-3-yl)-3,3-difluoro-1-methylcyclobutane-1-carboxamide]", "Kv7.2/7.3 Activity": "++ (“++” High Activity ≥ 0.7)"}
{"smiles": "Cn1nc(NC(=O)C2(C)CC(F)(F)C2)c(C2CCC2)c1-c1ccc(OC(F)(F)F)cc1", "note": "[Compound 200, N-(4-cyclobutyl-1-methyl-5-(4-(trifluoromethoxy)phenyl)-1H-pyrazol-3-yl)-3,3-difluoro-1-methylcyclobutane-1-carboxamide]", "Kv7.2/7.3 Activity": "+ (“+” Moderate Activity 0.15-0.7)"}
{"smiles": "Cn1nc(NC(=O)C2(C)CC(F)(F)C2)c(C2CCC2)c1-c1ccc(F)c(F)c1", "note": "[Compound 201, N-(4-cyclobutyl-5-(3,4-difluorophenyl)-1-methyl-1H-pyrazol-3-yl)-3,3-difluoro-1-methylcyclobutane-1-carboxamide]", "Kv7.2/7.3 Activity": "++ (“++” High Activity ≥ 0.7)"}
{"smiles": "Cn1nc(NC(=O)[C@H]2C[C@](C)(F)C2)c(C2CCC2)c1-c1ccc(F)cc1", "note": "[Compound 202, (1r,3r)-N-(4-cyclobutyl-5-(4-fluorophenyl)-1-methyl-1H-pyrazol-3-yl)-3-fluoro-3-methylcyclobutane-1-carboxamide]", "Kv7.2/7.3 Activity": "++ (“++” High Activity ≥ 0.7)"}
{"smiles": "Cn1nc(NC(=O)[C@H]2C[C@](C)(F)C2)c(C2CCC2)c1-c1cnc(C(F)(F)F)s1", "note": "[Compound 203, (1r,3r)-N-(4-cyclobutyl-1-methyl-5-(2-(trifluoromethyl)thiazol-5-yl)-1H-pyrazol-3-yl)-3-fluoro-3-methylcyclobutane-1-carboxamide]", "Kv7.2/7.3 Activity": "+ (“+” Moderate Activity 0.15-0.7)"}
{"smiles": "Cn1nc(NC(=O)C2CC3(C2)CC(F)(F)C3)c(C2CCC2)c1-c1ccc(F)cc1", "note": "[Compound 204, N-(4-cyclobutyl-5-(4-fluorophenyl)-1-methyl-1H-pyrazol-3-yl)-6,6-difluorospiro[3.3]heptane-2-carboxamide]", "Kv7.2/7.3 Activity": "++ (“++” High Activity ≥ 0.7)"}
{"smiles": "Cn1nc(NC(=O)C2CSC2)c(C2CCC2)c1-c1ccc(F)cc1", "note": "[Compound 205, N-(4-cyclobutyl-5-(4-fluorophenyl)-1-methyl-1H-pyrazol-3-yl)thietane-3-carboxamide]", "Kv7.2/7.3 Activity": "++ (“++” High Activity ≥ 0.7)"}
{"smiles": "Cn1nc(NC(=O)[C@H]2C[C@H]2F)c(C2CCC2)c1-c1ccc(F)cc1", "note": "[Compound 206, (1R,2R)-N-(4-cyclobutyl-5-(4-fluorophenyl)-1-methyl-1H-pyrazol-3-yl)-2-fluorocyclopropane-1-carboxamide]", "Kv7.2/7.3 Activity": "+ (“+” Moderate Activity 0.15-0.7)"}
{"smiles": "Cn1nc(NC(=O)[C@H]2CC2(C)C)c(-c2ccc(F)cc2)c1C1CC(F)(F)C1", "note": "[Compound 207, (S)-N-(5-(3,3-difluorocyclobutyl)-4-(4-fluorophenyl)-1-methyl-1H-pyrazol-3-yl)-2,2-dimethylcyclopropane-1-carboxamide]", "Kv7.2/7.3 Activity": "++ (“++” High Activity ≥ 0.7)"}
{"smiles": "Cn1nc(NC(=O)C2(C)CC(F)(F)C2)c(C2CCC2)c1-c1ccc(C(F)(F)F)cc1", "note": "[Compound 208, N-(4-cyclobutyl-1-methyl-5-(4-(trifluoromethyl)phenyl)-1H-pyrazol-3-yl)-3,3-difluoro-1-methylcyclobutane-1-carboxamide]", "Kv7.2/7.3 Activity": "− (“−” No Activity < 0.15)"}
{"smiles": "Cn1nc(NC(=O)C2CC(F)(F)C2)c(C2CCC2)c1-c1ccc(C(F)(F)F)cc1", "note": "[Compound 209, N-(4-cyclobutyl-1-methyl-5-(4-(trifluoromethyl)phenyl)-1H-pyrazol-3-yl)-3,3-difluorocyclobutane-1-carboxamide]", "Kv7.2/7.3 Activity": "+ (“+” Moderate Activity 0.15-0.7)"}
{"smiles": "Cn1nc(NC(=O)C2(C)CC(F)(F)C2)c(C2CCC2)c1-c1ccc(Cl)s1", "note": "[Compound 210, N-(5-(5-chlorothiophen-2-yl)-4-cyclobutyl-1-methyl-1H-pyrazol-3-yl)-3,3-difluoro-1-methylcyclobutane-1-carboxamide]", "Kv7.2/7.3 Activity": "++ (“++” High Activity ≥ 0.7)"}
{"smiles": "Cn1nc(NC(=O)NC2CC(F)(F)C2)c(C2CCC2)c1-c1ccc(Cl)s1", "note": "[Compound 211, 1-(5-(5-chlorothiophen-2-yl)-4-cyclobutyl-1-methyl-1H-pyrazol-3-yl)-3-(3,3-difluorocyclobutyl)urea]", "Kv7.2/7.3 Activity": "++ (“++” High Activity ≥ 0.7)"}
{"smiles": "Cn1nc(NC(=O)NC2CC(F)(F)C2)c(C2CCC2)c1-c1ccc(F)cc1", "note": "[Compound 212, 1-(4-cyclobutyl-5-(4-fluorophenyl)-1-methyl-1H-pyrazol-3-yl)-3-(3,3-difluorocyclobutyl)urea]", "Kv7.2/7.3 Activity": "+ (“+” Moderate Activity 0.15-0.7)"}
{"smiles": "Cn1nc(NC(=O)NC2CC(F)(F)C2)c(C2CCC2)c1-c1ccc(F)c(F)c1", "note": "[Compound 213, 1-(4-cyclobutyl-5-(3,4-difluorophenyl)-1-methyl-1H-pyrazol-3-yl)-3-(3,3-difluorocyclobutyl)urea]", "Kv7.2/7.3 Activity": "++ (“++” High Activity ≥ 0.7)"}
{"smiles": "CCO[C@@H](CC(=O)Nc1nn(C)c(-c2ccc(F)c(F)c2)c1C1CCC1)C(F)(F)F", "note": "[Compound 214, (S)-N-(4-cyclobutyl-5-(3,4-difluorophenyl)-1-methyl-1H-pyrazol-3-yl)-3-ethoxy-4,4,4-trifluorobutanamide]", "Kv7.2/7.3 Activity": "++ (“++” High Activity ≥ 0.7)"}
{"smiles": "CO[C@@H](CC(=O)Nc1nn(C)c(-c2ccc(F)c(F)c2)c1C1CCC1)C(F)(F)F", "note": "[Compound 215, (S)-N-(4-cyclobutyl-5-(3,4-difluorophenyl)-1-methyl-1H-pyrazol-3-yl)-4,4,4-trifluoro-3-methoxybutanamide]", "Kv7.2/7.3 Activity": "++ (“++” High Activity ≥ 0.7)"}
{"smiles": "COC1(CC(=O)Nc2nn(C)c(-c3ccc(F)c(F)c3)c2C2CCC2)CCC1", "note": "[Compound 216, N-(4-cyclobutyl-5-(3,4-difluorophenyl)-1-methyl-1H-pyrazol-3-yl)-2-(1-methoxycyclobutyl)acetamide]", "Kv7.2/7.3 Activity": "++ (“++” High Activity ≥ 0.7)"}
{"smiles": "Cn1nc(NC(=O)CC2CC(F)(F)C2)c(C2CCC2)c1-c1ccc(F)c(F)c1", "note": "[Compound 217, N-(4-cyclobutyl-5-(3,4-difluorophenyl)-1-methyl-1H-pyrazol-3-yl)-2-(3,3-difluorocyclobutyl)acetamide]", "Kv7.2/7.3 Activity": "++ (“++” High Activity ≥ 0.7)"}
{"smiles": "Cn1nc(NC(=O)CC2CC(F)(F)C2)c(C2CCC2)c1-c1ccc(Cl)s1", "note": "[Compound 218, N-(5-(5-chlorothiophen-2-yl)-4-cyclobutyl-1-methyl-1H-pyrazol-3-yl)-2-(3,3-difluorocyclobutyl)acetamide]", "Kv7.2/7.3 Activity": "++ (“++” High Activity ≥ 0.7)"}
{"smiles": "Cn1nc(NC(=O)[C@@H]2C[C@H]2F)c(C2CCC2)c1-c1ccc(F)cc1", "note": "[Compound 219, (1S,2R)-N-(4-cyclobutyl-5-(4-fluorophenyl)-1-methyl-1H-pyrazol-3-yl)-2-fluorocyclopropane-1-carboxamide]", "Kv7.2/7.3 Activity": "− (“−” No Activity < 0.15)"}
{"smiles": "Cn1nc(NC(=O)C2CC(F)(F)C2)c(C2CCC2)c1-c1ccc(Cl)cc1", "note": "[Compound 220, N-(5-(4-chlorophenyl)-4-cyclobutyl-1-methyl-1H-pyrazol-3-yl)-3,3-difluorocyclobutane-1-carboxamide]", "Kv7.2/7.3 Activity": "++ (“++” High Activity ≥ 0.7)"}
{"smiles": "Cn1nc(NC(=O)C2(C)CC(F)(F)C2)c(C2CCC2)c1-c1ccc(Cl)cc1", "note": "[Compound 221, N-(5-(4-chlorophenyl)-4-cyclobutyl-1-methyl-1H-pyrazol-3-yl)-3,3-difluoro-1-methylcyclobutane-1-carboxamide]", "Kv7.2/7.3 Activity": "+ (“+” Moderate Activity 0.15-0.7)"}
{"smiles": "Cn1nc(NC(=O)CC2CC(F)(F)C2)c(C2CCC2)c1-c1ccc(Cl)cc1", "note": "[Compound 222, N-(5-(4-chlorophenyl)-4-cyclobutyl-1-methyl-1H-pyrazol-3-yl)-2-(3,3-difluorocyclobutyl)acetamide]", "Kv7.2/7.3 Activity": "++ (“++” High Activity ≥ 0.7)"}
{"smiles": "Cn1nc(NC(=O)[C@@H]2CC2(F)F)c(C2CCC2)c1-c1ccc(Cl)cc1", "note": "[Compound 223, (S)-N-(5-(4-chlorophenyl)-4-cyclobutyl-1-methyl-1H-pyrazol-3-yl)-2,2-difluorocyclopropane-1-carboxamide]", "Kv7.2/7.3 Activity": "+ (“+” Moderate Activity 0.15-0.7)"}
{"smiles": "Cn1nc(NC(=O)[C@H]2CC2(F)F)c(C2CCC2)c1-c1ccc(Cl)cc1", "note": "[Compound 224, (R)-N-(5-(4-chlorophenyl)-4-cyclobutyl-1-methyl-1H-pyrazol-3-yl)-2,2-difluorocyclopropane-1-carboxamide]", "Kv7.2/7.3 Activity": "− (“−” No Activity < 0.15)"}
